Series [1] concerns EPO-induced JAK2 signal pathway. Kind of series: EPO-induced proliferation of UT-7 cells (JAK2 signal). In kind it is cell-based, human. The note with it: Homo sapiens, UT7; UT-7 cell proliferation, EPO 10 ng/mL, 72 hours; read-out: Inhibition activity IC50 on EPO-induced JAK2 signal pathway. The gist of the method: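 […] was derived from inhibition rates across doses, scaled between wells lacking compound and cytokine (0) and EPO without compound (100), using alamarBlue fluorescence at Ex530/Em590. Compound (final 0-10000 nM) and 10 ng/mL EPO were given to UT-7 cells at 15000 per well for 72 h at 37° C.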

Series [2] is described as follows: In-vivo pharmacokinetic test in mice. The note with it: mouse, po; BALB/c female mice, gavage 10 mg/kg, plasma. The method, then:
LC-MS/MS method is used to determine the drug concentration in the plasma of mice at different times after intragastric administration of the compound of the example. Relevant pharmacokinetic parameters are calculated to study the pharmacokinetic behavior of the compound of the present invention in mice, thereby evaluating the pharmacokinetic characteristics thereof.
Test animal was healthy adult BALB/c female mouse (provided by Chengdu Yaokang Biotechnology Co., Ltd.);
Compound administration and sample collection: compound was administered to BALB/c female mice by gavage (10 mg/kg). At 0.25, 0.5, 1, 2, 4, 6, 8, and 24 hours after administration, 60 μL of whole blood of the mouse fundus venous plexus were collected and centrifuged at 4000 rpm for 10 min to provide plasma.
Sample analysis: 10 μL of mouse plasma samples were respectively added with 290 μL of acetonitrile solution containing internal standard to precipitate proteins. After swirling for 10 min and centrifuging at 4000 rpm for 10 min, 200 μL of supernatant was added to 96-well plate, and analyzed by LC-MS/MS at an injection volume of 1 μL.

The next series concerns the target TYK2 JH2 domain (Homo sapiens (Human), UniProt P29597). Kind of series: TYK2 JH2 domain FRET tracer assay. In kind it is binding. The conditions noted are these: FRET 665/615 nm; read-out: Inhibition activity IC50 on TYK2 JH2 domain. The procedure: Compound of the present invention formulated into different concentrations (series 3 times dilutions, started from 60 μM, 11 concentrations in total) was added to 384-well plate, followed by 5 μL of enzyme (i.e., TYK2 JH2 domain), Tb antibody (Cisbio) and tracer. The mixture was incubated at 25° C. for 60 min and left at 4° C. overnight.

For orientation: IC50 means the point on the concentration scale where inhibition reaches its midpoint. For orientation: AUC means the area under the concentration-time curve, a measure of exposure. Read a high AUC as more exposure. Broadly, the Cmax is the peak of the concentration-time curve.

Bounds are passed on as bounds.

Chain of TYK2 JH2 domain (P29597 589-875): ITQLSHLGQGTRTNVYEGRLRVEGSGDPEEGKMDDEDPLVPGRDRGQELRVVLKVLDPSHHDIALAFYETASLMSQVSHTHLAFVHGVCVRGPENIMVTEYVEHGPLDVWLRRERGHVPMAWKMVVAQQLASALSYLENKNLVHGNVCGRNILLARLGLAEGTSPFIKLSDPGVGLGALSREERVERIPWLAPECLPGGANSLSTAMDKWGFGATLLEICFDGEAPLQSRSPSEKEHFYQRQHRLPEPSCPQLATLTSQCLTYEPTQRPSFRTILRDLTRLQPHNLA

With `CCONC(=O)c1cnc(Nc2cc(C)nc(C)n2)cc1Nc1cccc(-c2ncc(C)cn2)c1OC` [Example 238, 6-((2,6-dimethylpyrimidin-4-yl)amino)-N-ethoxy-4-((2-methoxy-3-(5-methylpyrimidin-2-yl)phenyl)amino)nicotinamide], the IC50 in series [1] was more than 10000 nM. For the same compound, in series [2], the exposure (AUC) worked out at 39.9 µM·h and the highest concentration (Cmax) stood at 15.1 µM.
Regarding `CCONC(=O)c1cnc(Nc2cc(C)nc(C)n2)cc1Nc1cccc(-c2ncccn2)c1OC` [Example 212], the IC50 on TYK2 JH2 domain came out at 0.05 nM. In addition, in series [1], the IC50 is more than 10000 nM. Moreover, in series [2], the AUC stood at 16.3 µM·h and the peak concentration (Cmax) is 15 µM.
On the same counts, the results for `CCONC(=O)c1cnc(NC(=O)C2CC2)cc1Nc1cccc(-c2ncc(Cl)cn2)c1OC` [Example 219, 4-((3-(5-chloropyrimidin-2-yl)-2-methoxyphenyl)amino)-6-(cyclopropylcarboxamido)-N-ethoxy nicotinamide] are 0.13 nM, more than 10000 nM, 16.8 µM·h and 10.3 µM.
For the compound `CCONC(=O)c1cnc(Nc2cc(C)nc(C)n2)cc1Nc1cc(F)cc(-c2ncccn2)c1OC` [Example 215, 6-((2,6-dimethylpyrimidin-4-yl)amino)-N-ethoxy-4-((5-fluoro-2-methoxy-3-(pyrimidin-2-yl)phenyl)amino)nicotinamide], on TYK2 JH2 domain, the concentration for half-maximal inhibition (IC50) stood at 0.07 nM. Besides, the IC50 in series [1] is more than 10000 nM. Besides, in series [2], the exposure (AUC) is 25.8 µM·h and the Cmax is 13.6 µM.
As to `CCONC(=O)c1cnc(Nc2cc(C)nc(C)n2)cc1Nc1ccc(C(F)(F)F)cc1N(C)S(C)(=O)=O` [Example 202, 6-((2,6-dimethylpyrimidin-4-yl)amino)-N-ethoxy-4-((2-(N-methylmethanesulfonamido)-4-(trifluoromethyl)phenyl)amino)nicotinamide], the IC50 was 0.06 nM at TYK2 JH2 domain and more than 10000 nM in series [1].

The record behind these values is patent publication US20240101548A1, “HYDROXAMATE COMPOUND, PREPARATION METHOD THEREFOR AND APPLICATION THEREOF” (SHENZHEN CHIPSCREEN BIOSCIENCES CO., LTD., priority 2020, published 2024).
